Data from patent publication US20250269039A1, “THERAPEUTIC-OLIGONUCLEOTIDES ACTIVATED BY NUCLEASES” (priority 2020, published 2025).

Tests used:
[1] = tested on: S. aureus ATCC 1747 (MRSA); assay: Broth microdilution MIC and growth inhibition; assay type: cell-based, Staphylococcus aureus
Description: (§1) Bacteria strains. S. aureus NCTC 12493 (MRSA), S. aureus ATCC 29213 (MSSA), S. aureus ATCC 43300 (MRSA), S. aureus ATCC 1707 (MRSA), S. aureus ATCC 1717 (MRSA), S. aureus ATCC 1747 (MRSA), S. aureus ATCC 1761 (MRSA), S. aureus ATCC 1766 (MRSA), S. aureus ATCC 1768 (MRSA), S. epidermidis ATCC 35984, E. coli ATCC 25922, K. pneumoniae ATCC 13883, P. mirabilis ATCC 25933, S. enterica ATCC 14028 and P. aeruginosa ATCC 10145 strains were used in this study. Bacteria were initially inoculated onto tryptone soy agar with 5% defibrinated sheep blood (Thermo Fisher Scientific, Inc., Waltham, MA, USA) and incubated at 37° C. for 24 hours. Then, single colonies of each strain were transferred to tryptone soy broth (Thermo Fisher Scientific) for the nuclease activity assay or antimicrobial susceptibility testing, respectively.
(§2) Antimicrobial susceptibility testing. Minimal inhibitory concentrations (MIC) of all nucleoside analogues and TOUCANs against each bacteria strain were determined using broth microdilution method. A single colony obtained from overnight culture on tryptone soy agar with 5% defibrinated sheep blood was inoculated in cation-adjusted Mueller Hinton Broth and adjusted to 10^6 CFU/mL. TOUCANs were prepared in PBS+/+ (treatment) and serial dilutions were made in 96-well polystyrene round bottom microwell plates with 50 μL final volume for each concentration. PBS+/+ was used as untreated control. Next, 50 μL bacteria solutions were added to each well to a final bacteria concentration of 5×10^5 CFU/mL. Plates were incubated at 37° C. in Cytation 1 Cell Imaging Multimode Reader. Growth curves were obtained by measuring optical densities at 600 nm every 10 minutes for 18 hours using Cytation 1 Cell Imaging Multimode Reader. In addition, visual inspection of the plates was carried out after 18 hours and photographs were taken. MICs were defined as the lowest drug concentration in the microwell at which bacterial growth was not visible at the end of the incubation period. Besides MIC determination, specificity of TOUCAN 7mGe was also shown with subcultures on chromogenic media. For this purpose, 5 μL of different concentrations of each strain were inoculated onto CHROM agar Orientation Media (Becton Dickinson) and the bacterial growth of each bacteria strain tested was observed by naked eye after incubation at 37° C. for 24 hours. Finally, photographs of the chromogenic media were taken.

[2] = tested on: S. aureus ATCC 29213 (MSSA); assay: Broth microdilution MIC and growth inhibition; assay type: cell-based, Staphylococcus aureus; settings: S. aureus ATCC 29213 (MSSA)
Description: as §1, §2

[3] = tested on: S. aureus ATCC 1768 (MRSA); assay: Broth microdilution MIC and growth inhibition; assay type: cell-based, Staphylococcus aureus
Description: as §1, §2

[4] = tested on: S. aureus ATCC 1707 (MRSA); assay: Broth microdilution MIC and growth inhibition; assay type: cell-based, Staphylococcus aureus
Description: as §1, §2

[5] = tested on: S. aureus ATCC 1717 (MRSA); assay: Broth microdilution MIC and growth inhibition; assay type: cell-based, Staphylococcus aureus
Description: as §1, §2

[6] = tested on: S. aureus ATCC 1761 (MRSA); assay: Broth microdilution MIC and growth inhibition; assay type: cell-based, Staphylococcus aureus
Description: as §1, §2

[7] = tested on: S. aureus NCTC 12493 (MRSA); assay: Broth microdilution MIC and growth inhibition; assay type: cell-based, Staphylococcus aureus; settings: for growth inhibition, dose response: NCTC-12493 (MRSA), FIG. 5a-b
Description: as §1, §2

[8] = tested on: S. aureus ATCC 43300 (MRSA); assay: Broth microdilution MIC and growth inhibition; assay type: cell-based, Staphylococcus aureus
Description: as §1, §2

[9] = tested on: S. aureus ATCC 1766 (MRSA); assay: Broth microdilution MIC and growth inhibition; assay type: cell-based, Staphylococcus aureus; settings: S. aureus ATCC 1766 (MRSA)
Description: as §1, §2

S. aureus [10] = assay: Growth inhibition curves / MICs in S. aureus cultures (strain not named or summary over strains); assay type: cell-based, Staphylococcus aureus
Experimental: as §2

[11] = tested on: S. epidermidis ATCC 35984; assay: Broth microdilution MIC and growth inhibition (control bacteria); assay type: cell-based, Staphylococcus epidermidis
Description: as §1, §2

[12] = tested on: Breast cancer cells (MDAMB231); assay: Anti-cancer drug susceptibility testing, breast cancer cells, 72 h; assay type: cell-based; settings: 72 h of treatment; Gemcitabine alone, TOUCAN 7mGe spiked with MN; FIG. 14
Experimental: (§3) Anti-cancer drug susceptibility testing for TOUCAN 7mGe. Gemcitabine and equivalent 7mGe solutions were prepared as explained before. Then, 7mGe was pre-exposed to 10 μl of 10 U MN for 1 hour at 37° C. (7mGe+MN). 100 μl of both drugs (Gemcitabine and 7mGe+MN) were added to the related wells and serially diluted using PBS+/+making the final concentrations between 100-2 μg/μl. Breast cancer cells (MDAMB231) and Pancreatic cancer cells (ASPC-1) were prepared as 10.000 cells/ml and 100 μl cell suspensions were added to each well. The plate was incubated at 37° C. for 72 hours. At 48th hour of incubation, 100 μl CyQUANT® Direct Cell Proliferation Assay kit was added to each well. Cell counts and images were taken at the end of 72 hours incubation period using Cytation 1 Cell Imaging Multi-Mode Reader.

[13] = tested on: other pathogenic bacteria; assay: Specificity study by visual inspection on chromogenic media, non-targeted control bacteria; assay type: cell-based; settings: all concentrations tested, FIG. 1e
Experimental: as §2, with “For this purpose, 5 μL of different concentrations of each strain were inoculated onto CHROM agar Orientation Media (Becton Dickinson) and the bacterial growth of each bacteria strain tested was observed by naked eye after incubation at 37° C. for 24 hours. Finally, photographs of the chromogenic media were taken.” left out

E. coli ATCC 25922 = assay: Broth microdilution MIC and growth inhibition (control bacteria); assay type: cell-based, Escherichia coli
Description: as §1, §2

P. mirabilis ATCC 25933 = assay: as above; assay type: cell-based, Proteus mirabilis
Description: as §1, §2

S. aureus [14] = assay: Specificity study by visual inspection on chromogenic media, targeted bacteria; assay type: cell-based, Staphylococcus aureus; settings: FIG. 1e
Experimental: as §2, with “For this purpose, 5 μL of different concentrations of each strain were inoculated onto CHROM agar Orientation Media (Becton Dickinson) and the bacterial growth of each bacteria strain tested was observed by naked eye after incubation at 37° C. for 24 hours. Finally, photographs of the chromogenic media were taken.” left out

[15] = tested on: Pancreatic cancer cells (ASPC-1); assay: Anti-cancer drug susceptibility testing, pancreatic cancer cells, 72 h; assay type: cell-based; settings: 72 h cultures; Gemcitabine alone, TOUCAN 7mGe spiked with MN; FIG. 13
Experimental: as §3

S. enterica ATCC 14028 = assay: Broth microdilution MIC and growth inhibition (control bacteria); assay type: cell-based
Description: as §1, §2

K. pneumoniae ATCC 13883 = assay: as above; assay type: cell-based
Description: as §1, §2

P. aeruginosa ATCC 10145 = assay: as above; assay type: cell-based
Description: as §1, §2

## mU-mU-mU-mU-T-T-Ge [TOUCAN 7mGe]
[1]; 18 h, TOUCAN as NA equivalent
  MIC: >40 µg/mL
[1]; mean ± SD, n = 3
  TOUCAN % Growth inhibition: 44.9 ± 0.7%
[2]; 18 h, TOUCAN as NA equivalent
  MIC: >40 µg/mL
[2]; mean ± SD, n = 3
  TOUCAN % Growth inhibition: 52.5 ± 1.1%
[3]; 18 h, TOUCAN as NA equivalent
  MIC: >40 µg/mL
[3]; mean ± SD, n = 3
  TOUCAN % Growth inhibition: 61.9 ± 1.1%
[4]; 18 h, TOUCAN as NA equivalent
  MIC: >40 µg/mL
[4]; mean ± SD, n = 3
  TOUCAN % Growth inhibition: 61.5 ± 0.5%
[5]; 18 h, TOUCAN as NA equivalent
  MIC: >40 µg/mL
[5]; mean ± SD, n = 3
  TOUCAN % Growth inhibition: 72.9 ± 1.2%
[6]
  TOUCAN MIC/NA MIC TOUCAN Efficacy Ratio (TER): 2500
[6]; 18 h, TOUCAN as NA equivalent
  MIC: 40 µg/mL
[6]; mean ± SD, n = 3
  TOUCAN % Growth inhibition: 90.1%
[7]; 1.25 and 2.5 g/mL
  growth inhibition, dose response: partial effect
[7]; concentrations from 5 to 40 μg/mL
  growth inhibition, dose response: 96%
[7]; S. aureus NCTC 12493 (MRSA)
  TOUCAN MIC/NA MIC TOUCAN Efficacy Ratio (TER): 1250
[7]; S. aureus NCTC 12493 (MRSA), 18 h, TOUCAN as NA equivalent
  MIC: 5 µg/mL
[7]; S. aureus NCTC 12493 (MRSA), mean ± SD, n = 3
  TOUCAN % Growth inhibition: 85.3%
[8]; 18 h, TOUCAN as NA equivalent
  MIC: >40 µg/mL
[8]; mean ± SD, n = 3
  TOUCAN % Growth inhibition: 66.6 ± 1.6%
[9]; 18 h, TOUCAN as NA equivalent
  MIC: >40 µg/mL
[9]; mean ± SD, n = 3
  TOUCAN % Growth inhibition: 86.2 ± 0.9%
S. aureus [10]; S. aureus (target), FIG. 1d
  growth inhibition: high growth inhibition
S. aureus [10]; S. aureus cultures, optical density (OD) over 18 h, FIG. 1b
  bacterial growth inhibition: 96%
S. aureus [10]; combinations of the R-S-D moieties, FIG. 1c
  inhibition of bacterial growth (therapeutic efficacy): more than 99%
[11]; S. epidermidis (control), FIG. 1d
  associated toxicity to non-targeted bacteria: minimal associated toxicity
[11]; S. epidermidis ATCC 35984, 18 h, TOUCAN as NA equivalent
  MIC: >40 µg/mL
[11]; S. epidermidis ATCC 35984, mean ± SD, n = 3
  TOUCAN % Growth inhibition: 3.6 ± 2.0%
[11]; S. epidermidis, all concentrations tested, FIG. 5
  growth inhibition, dose response: No growth inhibition
[12]
  therapeutic effect in breast cancer cells (viability): slightly higher
[13]
  viability on chromogenic media: remained viable
E. coli ATCC 25922; 18 h, TOUCAN as NA equivalent
  MIC: >40 µg/mL
E. coli ATCC 25922; mean ± SD, n = 3
  TOUCAN % Growth inhibition: 0 ± 0.00%
P. mirabilis ATCC 25933; 18 h, TOUCAN as NA equivalent
  MIC: >40 µg/mL
P. mirabilis ATCC 25933; mean ± SD, n = 3
  TOUCAN % Growth inhibition: 8.3 ± 0.6%
S. aureus [14]; 5 μg/mL
  inhibition on chromogenic media: partially inhibited
S. aureus [14]; 10 and 20 μg/mL
  inhibition on chromogenic media: completely inhibited
[15]
  killing of pancreatic cancer cells (viability): efficient in killing
S. enterica ATCC 14028; 18 h, TOUCAN as NA equivalent
  MIC: >40 µg/mL
S. enterica ATCC 14028; mean ± SD, n = 3
  TOUCAN % Growth inhibition: 12.5 ± 5.7%
K. pneumoniae ATCC 13883; 18 h, TOUCAN as NA equivalent
  MIC: >40 µg/mL
K. pneumoniae ATCC 13883; mean ± SD, n = 3
  TOUCAN % Growth inhibition: 4.9 ± 3.1%
P. aeruginosa ATCC 10145; 18 h, TOUCAN as NA equivalent
  MIC: >40 µg/mL
P. aeruginosa ATCC 10145; mean ± SD, n = 3
  TOUCAN % Growth inhibition: 0 ± 0.00%
